After the bases stand the sugars from the 5' end (letter, count) and the backbone: PS all phosphorothioate, else s phosphorothioate and o phosphodiester by linkage. Methylation of C is not given here. e = 2'-O-(2-methoxyethyl) (MOE); k = constrained ethyl (cEt); d = 2'-deoxy (DNA); m = 2'-O-methyl
Target: HSD17B13
Conditions: ASO, HepaRG

Sequence	target mRNA inhibition (1 µM)	further results
GTCTAAACATCTCTGG (sugars k3 d1 m1 d8 k3, PS)	47%	–
CCTCAAATGTCTTGGT (sugars k3 d10 k3, PS)	6%	–
CTCCAGTAATGAGAAC (sugars k3 d10 k3, PS)	40%	–
GACAATGGTTGCCACT (sugars k3 d10 k3, PS)	63%	–
TATACAGACTAAGGGA (sugars k3 d10 k3, PS)	24%	–
GACTGCTGCTAGTGCC (sugars kkdddddddddkekek, PS)	35%	–
GCCAAACTGCTACTGT (sugars k3 d10 k3, PS)	73%	target mRNA inhibition (0.02 µM): 1%; target mRNA inhibition (0.078 µM): 13%; target mRNA inhibition (0.313 µM): 41%; target mRNA inhibition (1.25 µM): 63%; target mRNA inhibition (5 µM): 76%
AGTACAGTTCCTTTTC (sugars k3 d9 k3 e1, PS)	59%	–
TACATTACAGCCTTAG (sugars k3 d10 k3, PS)	75%	target mRNA inhibition (0.02 µM): 0%; target mRNA inhibition (0.078 µM): 2%; target mRNA inhibition (0.313 µM): 15%; target mRNA inhibition (1.25 µM): 71%; target mRNA inhibition (5 µM): 85%
CTAAAATTGTCTAAAC (sugars k3 d1 m1 d8 k3, PS)	13%	–
TATTTAGCATTGCCTG (sugars k3 d10 k3, PS)	12%	–
TCTCTTGGGTCCATTG (sugars k3 d10 k3, PS)	63%	–
GACCAAGGATATATGA (sugars k3 d10 k3, PS)	48%	–
TAACCATAGGACATGG (sugars k3 d10 k3, PS)	70%	–
TGGTAGCTTGCTCACT (sugars k3 d10 k3, PS)	71%	target mRNA inhibition (0.02 µM): 16%; target mRNA inhibition (0.078 µM): 31%; target mRNA inhibition (0.313 µM): 48%; target mRNA inhibition (1.25 µM): 72%; target mRNA inhibition (5 µM): 81%
ACAGUAAAATTATGCC (sugars k3 d1 m1 d8 k3, PS)	24%	–
TATACCTGTTGCCTAG (sugars k3 d10 k3, PS)	11%	–
ATCCAAAGATGAGAGT (sugars k3 d10 k3, PS)	5%	–
TGGTAAGTATTCCATC (sugars k3 d10 k3, PS)	26%	–
CAATTCACATATGTGA (sugars k3 d10 k3, PS)	11%	–
TGAACAGTCTTAAACC (sugars k3 d9 k3 e1, PS)	61%	–
GTTTTTAAGAGGCATG (sugars k3 d9 k3 e1, PS)	78%	target mRNA inhibition (0.02 µM): 12%; target mRNA inhibition (0.078 µM): 17%; target mRNA inhibition (0.313 µM): 41%; target mRNA inhibition (1.25 µM): 64%; target mRNA inhibition (5 µM): 82%

Sequence	target mRNA inhibition (1 µM)	further results
CTGCTGCTAGTGCCAA (sugars k3 d10 k3, PS)	57%	–
TCAAAGCCTGTTGGAT (sugars k3 d10 k3, PS)	35%	–
GGGAAATTGTTGCTGT (sugars k3 d10 k3, PS)	42%	–
TATGAAGTTAGTATAG (sugars k3 d1 m1 d8 k3, PS)	27%	–
TATTATGAGGATCTGG (sugars k3 d10 k3, PS)	44%	–
AACAAGATTAGTCTTG (sugars k3 d10 k3, PS)	40%	–
GTTCATTCGAATTTCT (sugars k3 d10 k3, PS)	76%	target mRNA inhibition (0.02 µM): 0%; target mRNA inhibition (0.078 µM): 19%; target mRNA inhibition (0.313 µM): 60%; target mRNA inhibition (1.25 µM): 87%; target mRNA inhibition (5 µM): 88%
GGATGTTAGGACCCAG (sugars k3 d10 k3, PS)	81%	target mRNA inhibition (0.02 µM): 4%; target mRNA inhibition (0.078 µM): 18%; target mRNA inhibition (0.313 µM): 69%; target mRNA inhibition (1.25 µM): 89%; target mRNA inhibition (5 µM): 93%
GTCGGTCACCTTTCAT (sugars kkdddddddddkekek, PS)	57%	–
TACGACTTCATCTGTC (sugars k3 d10 k3, PS)	29%	–
TGTCCAGGTTGAGATA (sugars kkdddddddddkekek, PS)	48%	–
GTTCTTAATTACATTC (sugars k3 d10 k3, PS)	64%	–
TGCTATAGTAATCACA (sugars k3 d10 k3, PS)	65%	–
AGGATTAATCATGGGA (sugars k3 d10 k3, PS)	37%	–
CCCAAACATGGATGTT (sugars k3 d10 k3, PS)	72%	–
CATCATCGATGGAAGA (sugars k3 d10 k3, PS)	14%	–
CATAATAATAGCTCTA (sugars k3 d9 k3 e1, PS)	55%	–
CTCCAAGGAGTGCATC (sugars k3 d10 k3, PS)	53%	–
GTAAACTGTATGCCTC (sugars k3 d10 k3, PS)	74%	target mRNA inhibition (0.02 µM): 5%; target mRNA inhibition (0.078 µM): 30%; target mRNA inhibition (0.313 µM): 43%; target mRNA inhibition (1.25 µM): 78%; target mRNA inhibition (5 µM): 86%
TGTAAGAGTCAGTATC (sugars k3 d10 k3, PS)	43%	–
CTCAATAACTGAGTTA (sugars k3 d10 k3, PS)	4%	–
GACAGTAAAATTATGC (sugars k3 d10 k3, PS)	57%	–

Sequence	target mRNA inhibition (1 µM)	further results
GATTCGAAACTATTCA (sugars k3 d10 k3, PS)	57%	–
ACAAGTAAGGTAAAGT (sugars k3 d10 k3, PS)	38%	–
CTACATGTAAGGTTTT (sugars k3 d10 k3, PS)	11%	–
TAGTGTAAGCTGAGAG (sugars k3 d10 k3, PS)	75%	target mRNA inhibition (0.02 µM): 0%; target mRNA inhibition (0.078 µM): 0%; target mRNA inhibition (0.313 µM): 2%; target mRNA inhibition (1.25 µM): 48%; target mRNA inhibition (5 µM): 83%
GTGAACCCAGTATTCA (sugars k3 d10 k3, PS)	1%	–
CTTTGCAGCATTGATT (sugars k3 d10 k3, PS)	47%	–
CCTAATAACTACATGA (sugars k3 d10 k3, PS)	3%	–
GATAAGTAGATGGTAA (sugars k3 d10 k3, PS)	59%	–
AGGCAAAGATCTGGCC (sugars k3 d10 k3, PS)	7%	–
AGAAAGTTCATTCGAA (sugars k3 d10 k3, PS)	61%	–
CGTTUTGGGCTAATGA (sugars k3 d1 m1 d8 k3, PS)	34%	–
CTCATTTATGTACCAA (sugars k3 d10 k3, PS)	87%	target mRNA inhibition (0.02 µM): 0%; target mRNA inhibition (0.078 µM): 50%; target mRNA inhibition (0.313 µM): 75%; target mRNA inhibition (1.25 µM): 79%
AATTGATACACCAATG (sugars k3 d1 m1 d8 k3, PS)	40%	–
ATTAGTCTTGATGTAG (sugars k3 d10 k3, PS)	67%	–
CGTTTTGGGCTAATGA (sugars kkdddddddddkekek, PS)	37%	–
AGTCCATGCAAAAGCA (sugars k3 d10 k3, PS)	77%	target mRNA inhibition (0.02 µM): 1%; target mRNA inhibition (0.078 µM): 14%; target mRNA inhibition (0.313 µM): 38%; target mRNA inhibition (1.25 µM): 55%; target mRNA inhibition (5 µM): 78%
TTTGAACCGTATTCCC (sugars k3 d10 k3, PS)	69%	target mRNA inhibition (0.02 µM): 36%; target mRNA inhibition (0.078 µM): 41%; target mRNA inhibition (0.313 µM): 57%; target mRNA inhibition (1.25 µM): 79%; target mRNA inhibition (5 µM): 85%
TGGAACAATATGGGAT (sugars k3 d10 k3, PS)	46%	–
TACGACAGGTCATCTT (sugars k3 d10 k3, PS)	58%	–
ATGTAATAGCCAGTAC (sugars k3 d9 k3 e1, PS)	63%	–
GATGTATACATTACCT (sugars k3 d10 k3, PS)	67%	–
GACAATACAGGATAGA (sugars k3 d10 k3, PS)	43%	–

Sequence	target mRNA inhibition (1 µM)	further results
TCTCCAATACAGGCCA (sugars k3 d10 k3, PS)	21%	–
AATTGATACACCAATG (sugars k3 d9 k3 e1, PS)	53%	–
GTGTAAGCTGAGAGTT (sugars k3 d1 m1 d8 k3, PS)	55%	–
CCATCTATCAGACTTC (sugars k3 d9 k3 e1, PS)	60%	–
AAATTACTCCGTTCTG (sugars k3 d10 k3, PS)	28%	–
ATATATCCTTCCTTGG (sugars k3 d10 k3, PS)	20%	–
GCTAGACAATTGCAAA (sugars k3 d10 k3, PS)	77%	–
CCAATATATACTGACA (sugars k3 d10 k3, PS)	68%	–
GTCTCCAATACAGGCC (sugars k3 d10 k3, PS)	47%	–
ATATTGAGGCACTGGA (sugars k3 d10 k3, PS)	53%	–
ACTGGATGGATTTCTC (sugars k3 d10 k3, PS)	83%	target mRNA inhibition (0.02 µM): 9%; target mRNA inhibition (0.078 µM): 20%; target mRNA inhibition (0.313 µM): 45%; target mRNA inhibition (1.25 µM): 60%; target mRNA inhibition (5 µM): 88%
CCTAGTTGCAATGAGA (sugars k3 d10 k3, PS)	77%	–
AGTGCCAAACCAATGT (sugars k3 d10 k3, PS)	62%	–
GTTCAAATTGGATGCA (sugars k3 d10 k3, PS)	68%	–
TCCTGTGTTAGCTTTA (sugars kkdddddddddkekek, PS)	79%	target mRNA inhibition (0.02 µM): 18%; target mRNA inhibition (0.078 µM): 29%; target mRNA inhibition (0.313 µM): 54%; target mRNA inhibition (1.25 µM): 71%; target mRNA inhibition (5 µM): 86%
ACTCCAAGTAGGAGTA (sugars k3 d10 k3, PS)	0%	–
TATGAAGTTAGTATAG (sugars k3 d10 k3, PS)	30%	–
GGACTTCAGAGTTATA (sugars k3 d10 k3, PS)	36%	–
GATTAATCATGGGACA (sugars k3 d10 k3, PS)	9%	–
TACATCACCCACTTCT (sugars k3 d10 k3, PS)	37%	–

Reference: the OligoGym collection
